Measurements reported in patent US10294234B2, “HIV inhibitor compounds” (priority 2017, dated 2019).

The compounds below were run on HIV-1 (IIIB) in MT-4 cells (assay: MT-4 HIV assay). Conditions: Human immunodeficiency virus 1, MT4, 120 h.
Type: cell-based
Method: Compounds were tested in a high-throughput 384-well assay format for their ability to inhibit the replication of HIV-1 (IIIB) in MT-4 cells. Compounds were serially diluted (1:3) in DMSO on 384-well polypropylene plates and further diluted 200-fold into complete RPMI media (10% FBS, 1% P/S) using the Biotek Micro Flow and Agilent ECHO acoustic dispenser. Each plate contained up to 8 test compounds, with negative (No Drug Control) and 5 uM AZT positive controls. MT-4 cells were pre-infected with 10 uL of either RPMI (mock-infected) or a fresh 1:250 dilution of an HIV-1 (IIIB) concentrated virus stock. Infected and uninfected MT-4 cells were further diluted in complete RPMI media and added to each plate using a Micro Flow dispenser. After 5 days incubation in a humidified and temperature controlled incubator (37° C.), Cell Titer Glo (Promega) was added to the assay plates to quantify the amount of luciferase.
Compound `COC(=O)N[C@H](C(=O)N[C@@H](Cc1ccc(C#Cc2ccc(N3CC4CCC(C3)N4C(=O)N(C)C)nc2)cc1)[C@@H](O)CN(Cc1c(F)cc(-c2cnn(C(F)F)c2)cc1F)NC(=O)[C@@H](NC(=O)OC)C(C)(C)C(F)(F)F)C(C)(C)C(F)(F)F` [Example 17, Methyl ((5S,8S,9S,14S)-11-(4-(1-(difluoromethyl)-1H-pyrazol-4-yl)-2,6-difluorobenzyl)-8-(4-((6-(8-(dimethylcarbamoyl)-3,8-diazabicyclo[3.2.1]octan-3-yl)pyridin-3-yl)ethynyl)benzyl)-16,16,16-trifluoro-9-hydroxy-15,15-dimethyl-3,6,13-trioxo-5-(1,1,1-trifluoro-2-methylpropan-2-yl)-2-oxa-4,7,11,12-tetraazahexadecan-14-yl)carbamate] has an EC50 of 7.24 nM.
`COC(=O)N[C@H](C(=O)N[C@@H](Cc1ccc(C#Cc2cnc(N3C[C@H]4C[C@@H]3CN4C3COC3)nc2)cc1)[C@@H](O)CN(Cc1c(F)cc(-c2ncccn2)cc1F)NC(=O)[C@@H](NC(=O)OC)C(C)(C)C(F)(F)F)C(C)(C)C(F)(F)F` [Example 24, Methyl ((5S,8S,9S,14S)-11-(2,6-difluoro-4-(pyrimidin-2-yl)benzyl)-16,16,16-trifluoro-9-hydroxy-15,15-dimethyl-8-(4-((2-((1R,4R)-5-(oxetan-3-yl)-2,5-diazabicyclo[2.2.1]heptan-2-yl)pyrimidin-5-yl)ethynyl)benzyl)-3,6,13-trioxo-5-(1,1,1-trifluoro-2-methylpropan-2-yl)-2-oxa-4,7,11,12-tetraazahexadecan-14-yl)carbamate] was tested, and the EC50 was 3.82 nM.
With `COC(=O)N[C@H](C(=O)N[C@@H](Cc1ccc(C#Cc2ccc(N3C[C@H]4C[C@@H]3CN4C3COC3)nc2)cc1)[C@@H](O)CN(Cc1c(F)cc(-c2nnc(C3CC3)s2)cc1F)NC(=O)[C@@H](NC(=O)OC)C(C)(C)C(F)(F)F)C(C)(C)C(F)(F)F` [Example 27, Methyl ((5S,8S,9S,14S)-11-(4-(5-cyclopropyl-1,3,4-thiadiazol-2-yl)-2,6-difluorobenzyl)-16,16,16-trifluoro-9-hydroxy-15,15-dimethyl-8-(4-((6-((1R,4R)-5-(oxetan-3-yl)-2,5-diazabicyclo[2.2.1]heptan-2-yl)pyridin-3-yl)ethynyl)benzyl)-3,6,13-trioxo-5-(1,1,1-trifluoro-2-methylpropan-2-yl)-2-oxa-4,7,11,12-tetraazahexadecan-14-yl)carbamate] the EC50 was 3.5 nM.

Same assay, conditions: Human immunodeficiency virus 1, MT4, 120 h; HIV-1 (IIIB), MT-4 cells, 5 days, Cell Titer Glo; read-out: EC50
`COC(=O)N[C@H](C(=O)NN(Cc1c(F)cc(-c2cn(C(F)F)cn2)cc1F)C[C@H](O)[C@H](Cc1ccc(C#Cc2cnc(N3CC4CCC(C3)N4C3COC3)nc2)cc1)NC(=O)[C@@H](NC(=O)OC)C(C)(C)C(F)(F)F)C(C)(C)C` [Example 2, Methyl ((5S,8S,9S,14S)-11-(4-(1-(difluoromethyl)-1H-imidazol-4-yl)-2,6-difluorobenzyl)-9-hydroxy-15,15-dimethyl-8-(4-((2-(8-(oxetan-3-yl)-3,8-diazabicyclo[3.2.1]octan-3-yl)pyrimidin-5-yl)ethynyl)benzyl)-3,6,13-trioxo-5-(1,1,1-trifluoro-2-methylpropan-2-yl)-2-oxa-4,7,11,12-tetraazahexadecan-14-yl)carbamate] was tested, and the EC50 was 2.64 nM.
Compound `COC(=O)N[C@H](C(=O)N[C@@H](Cc1ccc(C#Cc2ccc(N3CC4CCC(C3)N4C3COC3)nc2)cc1)[C@@H](O)CN(Cc1ccc(-c2ccn(CC(F)F)n2)cc1)NC(=O)[C@@H](NC(=O)OC)C(C)(C)C(F)(F)F)C(C)(C)C(F)(F)F` [Example 3, Methyl ((5S,10S,11S,14S)-8-(4-(1-(2,2-difluoroethyl)-1H-pyrazol-3-yl)benzyl)-16,16,16-trifluoro-10-hydroxy-15,15-dimethyl-11-(4-((6-(8-(oxetan-3-yl)-3,8-diazabicyclo[3.2.1]octan-3-yl)pyridin-3-yl)ethynyl)benzyl)-3,6,13-trioxo-5-(1,1,1-trifluoro-2-methylpropan-2-yl)-2-oxa-4,7,8,12-tetraazahexadecan-14-yl)carbamate] has an EC50 of 6.95 nM.
Compound `COC(=O)N[C@H](C(=O)N[C@@H](Cc1ccc(C#Cc2ccc(N3CC4CCC(C3)N4C(=O)C3(C)COC3)nc2)cc1)[C@@H](O)CN(Cc1c(F)cc(-c2ccn(C)n2)cc1F)NC(=O)[C@@H](NC(=O)OC)C(C)(C)C)C(C)(C)C` [Example 4] has an EC50 of 2.82 nM.
With `COC(=O)N[C@H](C(=O)NN(Cc1c(F)cc(-c2ccn(C3CC3)n2)cc1F)C[C@H](O)[C@H](Cc1ccc(C#Cc2ccc(N3CC4CCC(C3)N4C3COC3)nc2)cc1)NC(=O)[C@@H](NC(=O)OC)C(C)(C)C(F)(F)F)C(C)(C)C` [Example 5, methyl ((5S,8S,9S,14S)-11-(4-(1-cyclopropyl-1H-pyrazol-3-yl)-2,6-difluorobenzyl)-9-hydroxy-15,15-dimethyl-8-(4-((6-(8-(oxetan-3-yl)-3,8-diazabicyclo[3.2.1]octan-3-yl)pyridin-3-yl)ethynyl)benzyl)-3,6,13-trioxo-5-(1,1,1-trifluoro-2-methylpropan-2-yl)-2-oxa-4,7,11,12-tetraazahexadecan-14-yl)carbamate] the EC50 was 4.37 nM.
With `COC(=O)N[C@H](C(=O)NN(Cc1c(F)cc(-c2ccn(CC(F)F)n2)cc1F)C[C@H](O)[C@H](Cc1ccc(C#Cc2ccc(N3C[C@H]4C[C@@H]3CN4C3COC3)nc2)cc1)NC(=O)[C@@H](NC(=O)OC)C(C)(C)C(F)(F)F)C(C)(C)C` [Example 8, methyl ((5S,8S,9S,14S)-11-(4-(1-(2,2-difluoroethyl)-1H-pyrazol-3-yl)-2,6-difluorobenzyl)-9-hydroxy-15,15-dimethyl-8-(4-((6-((1R,4R)-5-(oxetan-3-yl)-2,5-diazabicyclo[2.2.1]heptan-2-yl)pyridin-3-yl)ethynyl)benzyl)-3,6,13-trioxo-5-(1,1,1-trifluoro-2-methylpropan-2-yl)-2-oxa-4,7,11,12-tetraazahexadecan-14-yl)carbamate] the EC50 was 2.46 nM.
With `COC(=O)N[C@H](C(=O)N[C@@H](Cc1ccc(C#Cc2ccc(N3CCN4CCOC[C@H]4C3)nc2)cc1)[C@@H](O)CN(Cc1c(F)cc(-c2ccn(CC(F)F)n2)cc1F)NC(=O)[C@@H](NC(=O)OC)C(C)(C)C(F)(F)F)C(C)(C)C(F)(F)F` [Example 10, Methyl ((5S,8S,9S,14S)-11-(4-(1-(2,2-difluoroethyl)-1H-pyrazol-3-yl)-2,6-difluorobenzyl)-16,16,16-trifluoro-8-(4-((6-((R)-hexahydropyrazino[2,1-c][1,4]oxazin-8(1H)-yl)pyridin-3-yl)ethynyl)benzyl)-9-hydroxy-15,15-dimethyl-3,6,13-trioxo-5-(1,1,1-trifluoro-2-methylpropan-2-yl)-2-oxa-4,7,11,12-tetraazahexadecan-14-yl)carbamate] the EC50 was 3.46 nM.
`COC(=O)N[C@H](C(=O)NN(Cc1c(F)cc(-c2ccn(C(F)F)n2)cc1F)C[C@H](O)[C@H](Cc1ccc(C#Cc2ccc(N3CC4CC(C3)N4C3COC3)nc2)cc1)NC(=O)[C@@H](NC(=O)OC)C(C)(C)C(F)(F)F)C(C)(C)C` [Example 12, Methyl ((5S,8S,9S,14S)-11-(4-(1-(difluoromethyl)-1H-pyrazol-3-yl)-2,6-difluorobenzyl)-9-hydroxy-15,15-dimethyl-8-(4-((6-(6-(oxetan-3-yl)-3,6-diazabicyclo[3.1.1]heptan-3-yl)pyridin-3-yl)ethynyl)benzyl)-3,6,13-trioxo-5-(1,1,1-trifluoro-2-methylpropan-2-yl)-2-oxa-4,7,11,12-tetraazahexadecan-14-yl)carbamate] was tested, and the EC50 was 3.11 nM.
For `COC(=O)N[C@H](C(=O)NN(Cc1c(F)cc(-c2ccn(C(F)F)n2)cc1F)C[C@H](O)[C@H](Cc1ccc(C#Cc2ccc(N3CCN4CCOC[C@H]4C3)nc2)cc1)NC(=O)[C@@H](NC(=O)OC)C(C)(C)C(F)(F)F)C(C)(C)C` [Example 13, Methyl ((5S,8S,9S,14S)-11-(4-(1-(difluoromethyl)-1H-pyrazol-3-yl)-2,6-difluorobenzyl)-8-(4-((6-((R)-hexahydropyrazino[2,1-c][1,4]oxazin-8(1H)-yl)pyridin-3-yl)ethynyl)benzyl)-9-hydroxy-15,15-dimethyl-3,6,13-trioxo-5-(1,1,1-trifluoro-2-methylpropan-2-yl)-2-oxa-4,7,11,12-tetraazahexadecan-14-yl)carbamate], the EC50 was 6.3 nM.
`COC(=O)N[C@H](C(=O)N[C@@H](Cc1ccc(C#Cc2ccc(N3CC4CCC(C3)N4C3COC3)nc2)cc1)[C@@H](O)CN(Cc1c(F)cc(-c2ccn([C@@H]3CCOC3)n2)cc1F)NC(=O)[C@@H](NC(=O)OC)C(C)(C)C(F)(F)F)C(C)(C)C(F)(F)F` [Example 15, Methyl ((5S,8S,9S,14S)-11-(2,6-difluoro-4-(1-((R)-tetrahydrofuran-3-yl)-1H-pyrazol-3-yl)benzyl)-16,16,16-trifluoro-9-hydroxy-15,15-dimethyl-8-(4-((6-(8-(oxetan-3-yl)-3,8-diazabicyclo[3.2.1]octan-3-yl)pyridin-3-yl)ethynyl)benzyl)-3,6,13-trioxo-5-(1,1,1-trifluoro-2-methylpropan-2-yl)-2-oxa-4,7,11,12-tetraazahexadecan-14-yl)carbamate] showed an EC50 of 4.22 nM.
`COC(=O)N[C@H](C(=O)N[C@@H](Cc1ccc(C#Cc2ccc(N3CC4CCC(C3)N4C3COC3)nc2)cc1)[C@@H](O)CN(Cc1c(F)cc(-c2ccn(C)n2)cc1F)NC(=O)[C@@H](NC(=O)OC)C(C)(C)C)C(C)(C)C` [Example 22, Methyl ((5S,8S,9S,14S)-5-(tert-butyl)-1-(2,6-difluoro-4-(1-methyl-1H-pyrazol-3-yl)benzyl)-9-hydroxy-15,15-dimethyl-8-(4-((6-(8-(oxetan-3-yl)-3,8-diazabicyclo[3.2.1]octan-3-yl)pyridin-3-yl)ethynyl)benzyl)-3,6,13-trioxo-2-oxa-4,7,11,12-tetraazahexadecan-14-yl)carbamate] was tested, and the EC50 was 3.24 nM.
